Source: PubChem BioAssay AID1224913

Molecular target: Proto-oncogene tyrosine-protein kinase Src (Homo sapiens) (UniProt P12931)
Assay: SRC Y416 autophosphorylation block in cells – cell-based, Western blot, late-stage follow-up (AID 1224913)
Conditions: MDA-MB-231/MCF7 cells, pSRC Y416 Western blot; at 0.1 µM; stronger effect = higher value

Proto-oncogene tyrosine-protein kinase Src (Homo sapiens), sequence (P12931 whole entry, looked up): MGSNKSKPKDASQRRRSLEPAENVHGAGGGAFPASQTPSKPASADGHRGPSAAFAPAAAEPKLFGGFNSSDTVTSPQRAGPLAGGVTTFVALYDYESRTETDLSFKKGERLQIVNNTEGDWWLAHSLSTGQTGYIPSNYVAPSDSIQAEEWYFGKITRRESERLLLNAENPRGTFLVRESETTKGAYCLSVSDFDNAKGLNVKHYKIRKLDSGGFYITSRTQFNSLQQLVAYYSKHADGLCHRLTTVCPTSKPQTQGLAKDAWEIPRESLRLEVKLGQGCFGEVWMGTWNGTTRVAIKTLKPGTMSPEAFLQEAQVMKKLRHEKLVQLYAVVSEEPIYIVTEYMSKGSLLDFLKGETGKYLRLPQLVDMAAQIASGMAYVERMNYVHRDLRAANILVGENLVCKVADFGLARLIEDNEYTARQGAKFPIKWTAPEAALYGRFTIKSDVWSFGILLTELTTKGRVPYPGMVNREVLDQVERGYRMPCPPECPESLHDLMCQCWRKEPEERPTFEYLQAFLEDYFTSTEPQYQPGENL

- inhibition: 100%
Compound: COc1cc(-c2nn(CCN3CCC(N(C)C)CC3)c3ncnc(N)c23)ccc1NC(=O)OC(C)(C)C
